CCCCOc1ccc(C(=O)CCN2CCCCC2)cc1.Cl
solubility (mole fraction)
Details | 278.15 K | 283.15 K | 288.15 K | 293.15 K | 298.15 K | 303.15 K | 308.15 K | 313.15 K | 318.15 K | 323.15 K
in DMF | 0.0201 | 0.0227 | 0.0256 | 0.0291 | 0.0328 | 0.0371 | 0.0421 | 0.0475 | 0.0539 | 0.0608
in THF | 0.00088 | 0.00098 | 0.00108 | 0.00119 | 0.00133 | 0.00147 | 0.00162 | 0.0018 | 0.002 | 0.00221
in acetone | 0.0121 | 0.0148 | 0.018 | 0.0218 | 0.0263 | 0.0321 | 0.0389 | 0.0474 | 0.0574 | 0.0695
in ethanol | 0.062 | 0.07 | 0.0786 | 0.0882 | 0.0987 | 0.111 | 0.124 | 0.14 | 0.157 | 0.175
in ethyl acetate | 0.00638 | 0.00791 | 0.00983 | 0.012 | 0.0146 | 0.0181 | 0.0223 | 0.0276 | 0.0338 | 0.0415
in methanol | 0.0804 | 0.0905 | 0.103 | 0.116 | 0.131 | 0.147 | 0.166 | 0.188 | 0.212 | 0.238
in n-hexane | 0.00084 | 0.00095 | 0.00108 | 0.00122 | 0.00137 | 0.00155 | 0.00175 | 0.00198 | 0.00224 | 0.00253
in water | 0.0296 | 0.0339 | 0.039 | 0.045 | 0.0514 | 0.059 | 0.0674 | 0.0774 | 0.0888 | 0.102
